IC50 data for 13 compounds are collected here from patent US8865698B2, “Method of treatment using substituted pyrazolo[1,5-a]pyrimidine compounds” (Array BioPharma Inc., priority 2008, dated 2014).

Chain of histidine-tagged recombinant human TrkA, cytoplasmic domain (P04629 440-796): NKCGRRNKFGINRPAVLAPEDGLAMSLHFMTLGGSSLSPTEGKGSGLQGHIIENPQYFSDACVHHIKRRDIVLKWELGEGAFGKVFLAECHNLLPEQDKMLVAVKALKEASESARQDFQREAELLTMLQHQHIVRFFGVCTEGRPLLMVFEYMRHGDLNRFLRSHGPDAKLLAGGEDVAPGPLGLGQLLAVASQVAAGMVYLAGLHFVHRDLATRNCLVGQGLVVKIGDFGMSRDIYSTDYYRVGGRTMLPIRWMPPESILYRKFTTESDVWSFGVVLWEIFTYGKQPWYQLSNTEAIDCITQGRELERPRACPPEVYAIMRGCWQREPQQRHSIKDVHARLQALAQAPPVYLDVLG

The assay deals with histidine-tagged recombinant human TrkA, cytoplasmic domain (Homo sapiens (Human), UniProt P04629). Briefly: TrkA ELISA Assay. The settings on record: 2.5 nM TrkA, 500 μM ATP, 25 minutes; read-out: TrkA Elisa Enzyme IC50. The assay is classed as biochemical. In a few lines:
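IC50 derived by 4- or 5-parameter logistic fit of A450 signal from HRP-conjugated PY20 anti-phosphotyrosine with TMB. Reaction: poly(Glu,Ala,Tyr)-coated wells, 2.5 nM kinase, 500 μM ATP, MOPS pH 7.5 buffer with MgCl2, 25 min, ambient temperature.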
Background: ELISA stands for enzyme-linked immunosorbent assay.
One may read the IC50 as the concentration that inhibits the measured activity by half. Take `O=C(Nc1cnn2ccc(N3CCC[C@@H]3c3cc(F)ccc3F)nc12)N1C[C@@H]2C[C@H]1CO2` [Example 92, (1S,4S)—N-(5-((R)-2-(2,5-difluorophenyl)pyrrolidin-1-yl)pyrazolo[1,5-a]pyrimidin-3-yl)-2-oxa-5-azabicyclo[2.2.1]heptane-5-carboxamide]: the IC50 is 107 nM.
Turning to `O=C(Nc1cnn2ccc(N3CCC[C@@H]3c3cc(F)ccc3F)nc12)[C@H]1CC[C@@H](O)C1` [Example 94, (1S,3R)—N-(5-((R)-2-(2,5-difluorophenyl)pyrrolidin-1-yl)pyrazolo[1,5-a]pyrimidin-3-yl)-3-hydroxycyclopentanecarboxamide], the concentration for half-maximal inhibition (IC50) was 20.3 nM.
With `O=C(Nc1cnn2ccc(N3CCC[C@@H]3c3cc(F)ccc3F)nc12)[C@H]1CC[C@H](O)C1` [Example 95, (1S,3S)—N-(5-((R)-2-(2,5-difluorophenyl)pyrrolidin-1-yl)pyrazolo[1,5-a]pyrimidin-3-yl)-3-hydroxycyclopentanecarboxamide], the half-maximal inhibitory concentration (IC50) turned out to be 42.5 nM.
The result for `O=C(Nc1cnn2ccc(N3CCC[C@@H]3c3cc(F)ccc3F)nc12)C1CC(O)C1` (stereo partly drawn) [Example 96, (R)—N-(5-(2-(2,5-difluorophenyl)pyrrolidin-1-yl)pyrazolo[1,5-a]pyrimidin-3-yl)-3-hydroxycyclobutanecarboxamide] reads 27.4 nM.
The result for `CN(C)C(=O)C(=O)Nc1cnn2ccc(N3CCC[C@@H]3c3cc(F)ccc3F)nc12` [Example 97, (R)—N^1-(5-(2-(2,5-difluorophenyl)pyrrolidin-1-yl)pyrazolo[1,5-a]pyrimidin-3-yl)-N^2,N^2-dimethyloxalamide] reads 47.5 nM.
The result for `CNC(=O)C(=O)Nc1cnn2ccc(N3CCC[C@@H]3c3cc(F)ccc3F)nc12` [Example 98, (R)—N^1-(5-(2-(2,5-difluorophenyl)pyrrolidin-1-yl)pyrazolo[1,5-a]pyrimidin-3-yl)-N^2-methyloxalamide] reads 7.65 nM.
For `NC(=O)C(=O)Nc1cnn2ccc(N3CCC[C@@H]3c3cc(F)ccc3F)nc12` [Example 99, (R)—N^1-(5-(2-(2,5-difluorophenyl)pyrrolidin-1-yl)pyrazolo[1,5-a]pyrimidin-3-yl)oxalamide], the 50% inhibitory concentration (IC50) worked out at 4.65 nM.
The result for `O=C(Nc1cnn2ccc(N3CCC[C@@H]3c3cc(F)ccc3F)nc12)C(=O)NC1CC1` [Example 100, (R)—N^1-cyclopropyl-N2-(5-(2-(2,5-difluorophenyl)pyrrolidin-1-yl)pyrazolo[1,5-a]pyrimidin-3-yl)oxalamide] reads 15.8 nM; that for `O=C(Nc1cnn2ccc(N3CCC[C@@H]3c3cc(F)ccc3F)nc12)C(=O)N1CC(O)C1` [Example 101, (R)—N-(5-(2-(2,5-difluorophenyl)pyrrolidin-1-yl)pyrazolo[1,5-a]pyrimidin-3-yl)-2-(3-hydroxyazetidin-1-yl)-2-oxo acetamide], 10.1 nM; that for `O=C(Nc1cnn2ccc(N3CCC[C@@H]3c3cc(F)ccc3F)nc12)C(=O)N1CC[C@H](O)C1` [Example 102, N-(5-((R)-2-(2,5-difluorophenyl)pyrrolidin-1-yl)pyrazolo[1,5-a]pyrimidin-3-yl)-2-((S)-3-hydroxypyrrolidin-1-yl)-2-oxoacetamide], 12.8 nM.
On to `O=C(Nc1cnn2ccc(N3CCC[C@@H]3c3cc(F)ccc3F)nc12)C(=O)N1CCOCC1` [Example 103, (R)—N-(5-(2-(2,5-difluorophenyl)pyrrolidin-1-yl)pyrazolo[1,5-a]pyrimidin-3-yl)-2-morpholino-2-oxoacetamide], for which the half-maximal inhibitory concentration (IC50) came out at 82.4 nM.
With `COC(=O)C(=O)Nc1cnn2ccc(N3CCC[C@@H]3c3cc(F)ccc3F)nc12` [Example 104, (R)-methyl 2-(5-(2-(2,5-difluorophenyl)pyrrolidin-1-yl)pyrazolo[1,5-a]pyrimidin-3-ylamino)-2-oxoacetate] the figure was 7.65 nM; with `O=C(O)C(=O)Nc1cnn2ccc(N3CCC[C@@H]3c3cc(F)ccc3F)nc12` [Example 105, (R)-2-(5-(2-(2,5-difluorophenyl)pyrrolidin-1-yl)pyrazolo[1,5-a]pyrimidin-3-ylamino)-2-oxoacetic acid], 4.7 nM.
